Results: the supplement of paper PMC13380429

How the values were obtained:
Conditions in all cases: 72 h
Caco-2 [1] = experiment: cell viability relative to DMSO; higher = less toxic
Calu-3 [2] = experiment: as above
HepG2 [3] = experiment: as above
U2OS [4] = experiment: as above
Vero E6 [5] = experiment: as above
Caco-2 [6] = experiment: relative viability EC50 (midpoint between 100% and the lowest measured viability); higher = less toxic
Calu-3 [7] = experiment: as above
HepG2 [8] = experiment: as above
U2OS [9] = experiment: as above
Vero E6 [10] = experiment: as above
Caco-2 [11] = experiment: drug sensitivity score (DSS) for viability; higher = more toxic; extreme values may be limits of the assay
Calu-3 [12] = experiment: as above
HepG2 [13] = experiment: as above
U2OS [14] = experiment: as above
Vero E6 [15] = experiment: as above

SMILES | cell viability (Caco-2 [1]; 1 nM) [%] | cell viability (Caco-2 [1]; 10 nM) [%] | cell viability (Caco-2 [1]; 100 nM) [%] | cell viability (Caco-2 [1]; 1000 nM) [%] | cell viability (Caco-2 [1]; 10000 nM) [%] | cell viability (Calu-3 [2]; 1 nM) [%] | cell viability (Calu-3 [2]; 10 nM) [%] | cell viability (Calu-3 [2]; 100 nM) [%] | cell viability (Calu-3 [2]; 1000 nM) [%] | cell viability (Calu-3 [2]; 10000 nM) [%] | cell viability (HepG2 [3]; 1 nM) [%] | cell viability (HepG2 [3]; 10 nM) [%] | cell viability (HepG2 [3]; 100 nM) [%] | cell viability (HepG2 [3]; 1000 nM) [%] | cell viability (HepG2 [3]; 10000 nM) [%] | cell viability (U2OS [4]; 1 nM) [%] | cell viability (U2OS [4]; 10 nM) [%] | cell viability (U2OS [4]; 100 nM) [%] | cell viability (U2OS [4]; 1000 nM) [%] | cell viability (U2OS [4]; 10000 nM) [%] | cell viability (Vero E6 [5]; 1 nM) [%] | cell viability (Vero E6 [5]; 10 nM) [%] | cell viability (Vero E6 [5]; 100 nM) [%] | cell viability (Vero E6 [5]; 1000 nM) [%] | cell viability (Vero E6 [5]; 10000 nM) [%] | relative viability EC50 (Caco-2 [6]) [µM] | relative viability EC50 (Calu-3 [7]) [µM] | relative viability EC50 (HepG2 [8]) [µM] | relative viability EC50 (U2OS [9]) [µM] | relative viability EC50 (Vero E6 [10]) [µM] | drug sensitivity score (Caco-2 [11]) | drug sensitivity score (Calu-3 [12]) | drug sensitivity score (HepG2 [13]) | drug sensitivity score (U2OS [14]) | drug sensitivity score (Vero E6 [15])
O=C(Nc1cnccc1Cl)N1CCN(Cc2ccc3c(c2)OC(F)(F)O3)CC1 | 97.7 | 101 | 94 | 90.3 | 81 | 92.4 | 100 | 95.2 | 99 | 92.8 | 95.6 | 100 | 100 | 91.6 | 39.3 | 99.8 | 97.5 | 99.1 | 98.8 | 94 | 108 | 103 | 103 | 100 | 92.4 | > 10 | > 10 | 2.06 | > 10 | > 10 | 1 | 0 | 4.7 | 0 | 0
Cc1ccc(-c2csc3ncnc(SCCC(=O)O)c23)cc1 [TTP-22] | 103 | 96.5 | 97.3 | 95 | 97.4 | 101 | 87.5 | 93.4 | 99.4 | 96.3 | 103 | 92.3 | 95.6 | 100 | 108 | 97.3 | 102 | 99 | 99 | 104 | 97.1 | 94 | 102 | 101 | 102 | > 10 | > 10 | > 10 | > 10 | > 10 | 0 | 0 | 0 | 0 | 0
O=C(O)CSc1nnc(Br)n1-c1ccc(C2CC2)c2ccccc12 [lesinurad] | 98.4 | 90.9 | 91.4 | 94 | 99.7 | 99 | 101 | 106 | 95.5 | 102 | 98.8 | 102 | 99.4 | 84.8 | 99.7 | 99.6 | 103 | 95.2 | 95.9 | 96.3 | 99.4 | 100 | 99.9 | 102 | 99.5 | > 10 | > 10 | > 10 | > 10 | > 10 | 0 | 0 | 0 | 0 | 0
O=C[C@H](O)[C@@H](O)[C@H](O)CO [xylose] | 94 | 94.3 | 94.2 | 90.4 | 92.7 | 104 | 93 | 98.4 | 97.9 | 85.4 | 106 | 101 | 101 | 98 | 96.8 | 95.1 | 95.3 | 94.5 | 96.4 | 96.3 | 96.7 | 96.1 | 99.4 | 94.3 | 92.6 | > 10 | > 10 | > 10 | > 10 | > 10 | 0 | 0.3 | 0 | 0 | 0
CC1(C)O[C@@H]2C[C@H]3[C@@H]4CCC5=CC(=O)C=C[C@]5(C)[C@H]4[C@@H](O)C[C@]3(C)[C@]2(C(=O)CO)O1 [desonide] | 103 | 106 | 95 | 112 | 120 | 124 | 92.5 | 95 | 101 | 96.9 | 102 | 101 | 93.9 | 94.6 | 94.6 | 99.5 | 94.9 | 101 | 93.6 | 97.9 | 102 | 102 | 101 | 108 | 99.5 | > 10 | > 10 | > 10 | > 10 | > 10 | 0 | 0 | 0 | 0 | 0
NC(=O)CNCCC(c1ccccc1)c1ccccc1 [N20C] | 107 | 98.4 | 89.4 | 97.2 | 103 | 109 | 97.5 | 96.6 | 99.4 | 106 | 97.3 | 93.6 | 106 | 111 | 94.9 | 106 | 99.4 | 100 | 99.2 | 102 | 96.9 | 106 | 98.2 | 98.1 | 97.6 | > 10 | > 10 | > 10 | > 10 | > 10 | 0 | 0 | 0 | 0 | 0
O=C1c2cccnc2OC[C@@H]2CCCN12 | 108 | 99.6 | 100 | 95.6 | 100 | 103 | 87.1 | 98.9 | 101 | 91.1 | 96.9 | 98.8 | 96.1 | 102 | 99.2 | 103 | 98.6 | 95.9 | 97.7 | 96.4 | 93.8 | 98.5 | 90.5 | 91 | 103 | > 10 | > 10 | > 10 | > 10 | > 10 | 0 | 0 | 0 | 0 | 0
CN1CCN(CCc2ccc(Cl)c(Cl)c2)CC1 [BD-1063] | 98.6 | 100 | 95 | 91.3 | 92.2 | 91.3 | 96.2 | 102 | 96.9 | 101 | 108 | 102 | 103 | 92.4 | 87.7 | 94.2 | 100 | 93.9 | 100 | 95.3 | 105 | 101 | 105 | 95.1 | 93.9 | > 10 | > 10 | > 10 | > 10 | > 10 | 0 | 0 | 0.4 | 0 | 0
COc1ccc(-c2cc(=O)c3c(O)c(OC)c(O)cc3o2)cc1OC [eupatilin] | 98.3 | 94.8 | 94.7 | 96.9 | 92.9 | 92.2 | 101 | 92.6 | 93.9 | 78.5 | 94.2 | 99 | 85.9 | 99.5 | 90.1 | 105 | 97.3 | 102 | 99.7 | 101 | 99.6 | 102 | 97.2 | 97.3 | 97.8 | > 10 | > 10 | > 10 | > 10 | > 10 | 0 | 0.9 | 0 | 0 | 0
CC(C)c1onc(-c2c(Cl)cccc2Cl)c1COc1ccc(/C=C/c2cccc(C(=O)O)c2)c(Cl)c1 [GW-4064] | 94 | 99.4 | 102 | 91 | 81.4 | 93.9 | 107 | 103 | 102 | 96.5 | 105 | 103 | 92.4 | 99.2 | 93.8 | 98.2 | 106 | 96.4 | 93.3 | 97.7 | 95.5 | 99.8 | 94 | 93.8 | 95.7 | > 10 | > 10 | > 10 | > 10 | > 10 | 1.4 | 0 | 0 | 0 | 0
Cc1cc(NC(=O)C(c2ccccc2)N2CCCc3ccccc32)no1 (stereo not given) [CIM-0216] | 97.1 | 101 | 98.2 | 97.4 | 114 | 103 | 98.5 | 87.7 | 113 | 111 | 104 | 103 | 103 | 90.1 | 98.3 | 98.7 | 104 | 97.4 | 101 | 97 | 104 | 99.2 | 96.3 | 101 | 101 | > 10 | > 10 | > 10 | > 10 | > 10 | 0 | 0 | 0 | 0 | 0
CC[n+]1c(-c2ccccc2)c2cc(N)ccc2c2ccc(N)cc21 [homidium] | 95.9 | 93.2 | 87.2 | 55.4 | 4.5 | 103 | 98.9 | 93 | 97.7 | 26.4 | 107 | 101 | 88 | 64.5 | 35.7 | 97.1 | 96 | 98.4 | 87.8 | 39.2 | 92.8 | 100 | 90.5 | 94.5 | 85.3 | 0.984 | 2.94 | 0.679 | 1.74 | > 10 | 10.7 | 4.4 | 8.1 | 5.3 | 0.1
CN1CCOC(c2ccccc2)c2ccccc2C1 (stereo not given) [nefopam] | 86.6 | 102 | 95.1 | 99.5 | 91.9 | 105 | 108 | 96.7 | 91 | 101 | 95.8 | 104 | 96.3 | 101 | 106 | 104 | 99.3 | 105 | 100 | 98.7 | 95.9 | 103 | 98.8 | 102 | 95.1 | > 10 | > 10 | > 10 | > 10 | > 10 | 0 | 0 | 0 | 0 | 0
CCCN1CCC[C@@H]2Cc3n[nH]cc3C[C@H]21 [quinpirol-(-)] | 102 | 93.7 | 99.8 | 99.1 | 106 | 98.2 | 95.9 | 98.5 | 93.1 | 95.9 | 93.6 | 102 | 103 | 99.3 | 97.2 | 92.5 | 98.7 | 94.9 | 101 | 102 | 96.8 | 93.1 | 97.6 | 93.6 | 107 | > 10 | > 10 | > 10 | > 10 | > 10 | 0 | 0 | 0 | 0 | 0
Cc1ccc2c(c1)[C@H]1CN(C)CC[C@H]1N2 [stobadine] | 96.5 | 91.9 | 92.2 | 96 | 95.8 | 97.2 | 116 | 93 | 94.5 | 102 | 107 | 110 | 97.2 | 97.4 | 95.8 | 100 | 98.7 | 101 | 99.6 | 101 | 101 | 102 | 99.7 | 103 | 94.1 | > 10 | > 10 | > 10 | > 10 | > 10 | 0 | 0 | 0 | 0 | 0
